# Measurements from PubChem BioAssay AID194 (DTP/NCI, 2004).
# Several values for one entry are separate records, joined by “and”; a condition that tells them apart may be missing. Equal entries are not always repeated. Results filed as inconclusive are left out.
# Test system: BDF1 mice, B16 melanoma s.c., survival/tumor T/C
# Experiment: NCI In Vivo Anticancer Drug Screen. Data for tumor model B16 Melanoma (subcutaneous) in B6D2F1 (BDF1) mice
# Experimental: The antitumor activity of compounds was measured in mice bearing transplantable tumors. Survival or tumor size were measured and the results are expressed as the measurement made in the treated group (T) divided by the measurement made in the vehicle treated control group (C). The tumor model used in this assay is B16 Melanoma (subcutaneous) in B6D2F1 (BDF1) mice
# [1] = endpoint: median survival time, dose: 4.0 mg/kg/injection, schedule: Q01DX009 (ip), vehicle: Klucel (hydroxypropylcellulose) (HPC), higher = longer survival
# [2] = endpoint: median survival time, dose: 0.2 mg/kg/injection, schedule: Q01DX009 (ip), vehicle: saline, higher = longer survival
# [3] = endpoint: median survival time, dose: 0.4 mg/kg/injection, schedule: Q01DX009 (ip), vehicle: saline, higher = longer survival
# [4] = endpoint: median survival time, dose: 0.8 mg/kg/injection, schedule: Q01DX009 (ip), vehicle: saline, higher = longer survival
# [5] = endpoint: median survival time, dose: 1.6 mg/kg/injection, schedule: Q01DX009 (ip), vehicle: saline, higher = longer survival
compound,measurement,setting,value
O=c1[nH]c(=O)n([C@H]2CCCO2)cc1F,T/C,"endpoint: median survival time, dose: 23.0 mg/kg/injection, schedule: Q01DX009 (ip), vehicle: saline, higher = longer survival",101 % of control
same,T/C,"endpoint: median survival time, dose: 39.0 mg/kg/injection, schedule: Q01DX009 (ip), vehicle: saline, higher = longer survival",100 % of control
same,T/C,"endpoint: median survival time, dose: 65.0 mg/kg/injection, schedule: Q01DX009 (ip), vehicle: saline, higher = longer survival",100 % of control
same,T/C,"endpoint: median survival time, dose: 108.0 mg/kg/injection, schedule: Q04DX003 (ip), vehicle: saline, higher = longer survival",118 % of control
same,T/C,"endpoint: median survival time, dose: 180.0 mg/kg/injection, schedule: Q04DX003 (ip), vehicle: saline, higher = longer survival",107 % of control
CO[C@H]1/C=C/O[C@@]2(C)Oc3c(C)c(O)c4c(O)c(c(/C=N/N5C(C)CN(Cc6ccccc6)CC5C)c(O)c4c3C2=O)NC(=O)/C(C)=C\C=C\[C@H](C)[C@H](O)[C@@H](C)[C@@H](O)[C@@H](C)[C@H](OC(C)=O)[C@@H]1C (stereo partly specified),T/C,"endpoint: median survival time, dose: 50.0 mg/kg/injection, schedule: Q02DX Z (oral), vehicle: Klucel (hydroxypropylcellulose) (HPC), higher = longer survival",101 % of control
same,T/C,"endpoint: median survival time, dose: 100.0 mg/kg/injection, schedule: Q02DX Z (oral), vehicle: Klucel (hydroxypropylcellulose) (HPC), higher = longer survival",89 % of control
same,T/C,"endpoint: median survival time, dose: 200.0 mg/kg/injection, schedule: Q02DX Z (oral), vehicle: Klucel (hydroxypropylcellulose) (HPC), higher = longer survival",86 % of control
O=NN(CCCl)C(=O)NCCO,T/C,"endpoint: median survival time, dose: 2.59 mg/kg/injection, schedule: Q01DX007 (ip), vehicle: water, higher = longer survival",102 % of control
same,T/C,"endpoint: median survival time, dose: 4.32 mg/kg/injection, schedule: Q01DX007 (ip), vehicle: water, higher = longer survival",98 % of control
C=C(C)C12OC3(c4ccccc4)OC1C1C4OC4(CO)C(O)C4(O)C(=O)C(C)=CC4C1(O3)C(C)C2OC(=O)/C=C/C=C/c1ccccc1 (stereo unspecified),T/C,"endpoint: median survival time, dose: 6.3 micrograms/kg/injection, schedule: Q01DX009 (ip), vehicle: saline with Tween-80, higher = longer survival",115 % of control
same,T/C,"endpoint: median survival time, dose: 12.5 micrograms/kg/injection, schedule: Q01DX009 (ip), vehicle: saline with Tween-80, higher = longer survival",99 % of control
same,T/C,"endpoint: median survival time, dose: 25.0 micrograms/kg/injection, schedule: Q01DX009 (ip), vehicle: saline with Tween-80, higher = longer survival",115 % of control
same,T/C,"endpoint: median survival time, dose: 50.0 micrograms/kg/injection, schedule: Q01DX009 (ip), vehicle: saline with Tween-80, higher = longer survival",103 % of control
same,T/C,"endpoint: median survival time, dose: 100.0 micrograms/kg/injection, schedule: Q01DX009 (ip), vehicle: saline with Tween-80, higher = longer survival",98 % of control
CC(=O)O[C@H]1C(=O)[C@@]2(C)[C@H]([C@H](OC(=O)c3ccccc3)[C@]3(O)C[C@H](OC(=O)[C@H](O)[C@@H](NC(=O)c4ccccc4)c4ccccc4)C(C)=C1C3(C)C)[C@]1(OC(C)=O)CO[C@@H]1C[C@@H]2O,T/C,"endpoint: median survival time, dose: 1.32 mg/kg/injection, schedule: Q01DX009 (ip), vehicle: Klucel (hydroxypropylcellulose) (HPC), higher = longer survival",91 % of control
same,T/C,"endpoint: median survival time, dose: 1.32 mg/kg/injection, schedule: Q01DX009 (ip), vehicle: other, higher = longer survival",100 % of control
same,T/C,"endpoint: median survival time, dose: 1.98 mg/kg/injection, schedule: Q01DX009 (ip), vehicle: Klucel (hydroxypropylcellulose) (HPC), higher = longer survival",95 % of control
same,T/C,"endpoint: median survival time, dose: 1.98 mg/kg/injection, schedule: Q01DX009 (ip), vehicle: other, higher = longer survival",88 % of control
same,T/C,"endpoint: median survival time, dose: 2.96 mg/kg/injection, schedule: Q01DX009 (ip), vehicle: Klucel (hydroxypropylcellulose) (HPC), higher = longer survival",116 % of control
same,T/C,"endpoint: median survival time, dose: 2.96 mg/kg/injection, schedule: Q01DX009 (ip), vehicle: other, higher = longer survival",88 % of control
same,T/C,[1],93 % of control
same,T/C,"endpoint: median survival time, dose: 4.44 mg/kg/injection, schedule: Q01DX009 (ip), vehicle: other, higher = longer survival",123 % of control
same,T/C,"endpoint: median survival time, dose: 6.0 mg/kg/injection, schedule: Q01DX009 (ip), vehicle: Klucel (hydroxypropylcellulose) (HPC), higher = longer survival",97 % of control
same,T/C,"endpoint: median survival time, dose: 6.67 mg/kg/injection, schedule: Q01DX009 (ip), vehicle: Klucel (hydroxypropylcellulose) (HPC), higher = longer survival",117 % of control
same,T/C,"endpoint: median survival time, dose: 9.0 mg/kg/injection, schedule: Q01DX009 (ip), vehicle: Klucel (hydroxypropylcellulose) (HPC), higher = longer survival",93 % of control
same,T/C,"endpoint: median survival time, dose: 11.0 mg/kg/injection, schedule: Q04DX003 (ip), vehicle: Klucel (hydroxypropylcellulose) (HPC), higher = longer survival",102 % of control
same,T/C,"endpoint: median survival time, dose: 13.0 mg/kg/injection, schedule: Q01DX001 (ip), vehicle: Klucel (hydroxypropylcellulose) (HPC), higher = longer survival",97 % of control
same,T/C,"endpoint: median survival time, dose: 16.0 mg/kg/injection, schedule: Q04DX003 (ip), vehicle: Klucel (hydroxypropylcellulose) (HPC), higher = longer survival",91 % of control
same,T/C,"endpoint: median survival time, dose: 20.0 mg/kg/injection, schedule: Q01DX001 (ip), vehicle: Klucel (hydroxypropylcellulose) (HPC), higher = longer survival",122 % of control
same,T/C,"endpoint: median survival time, dose: 24.0 mg/kg/injection, schedule: Q04DX003 (ip), vehicle: Klucel (hydroxypropylcellulose) (HPC), higher = longer survival",93 % of control
same,T/C,"endpoint: median survival time, dose: 30.0 mg/kg/injection, schedule: Q01DX001 (ip), vehicle: Klucel (hydroxypropylcellulose) (HPC), higher = longer survival",106 % of control
COC1/C=C\C=C(/C)C(=O)NC2=CC(=O)C(=O)C(=C2O)CC(C)CC(OC)C(O)C(C)/C=C(\C)C1OC(N)=O (stereo unspecified),T/C,"endpoint: median survival time, dose: 0.78 mg/kg/injection, schedule: Q01DX005 (ip), vehicle: other, higher = longer survival",88 % of control
same,T/C,"endpoint: median survival time, dose: 3.13 mg/kg/injection, schedule: Q01DX005 (ip), vehicle: other, higher = longer survival",114 % of control
same,T/C,"endpoint: median survival time, dose: 6.25 mg/kg/injection, schedule: Q01DX005 (ip), vehicle: other, higher = longer survival",105 % of control
C1CCC2[N-]CC3CCCCC3[N-]CC3CCCCC3[N-]CC3CCCCC3[N-]CC2C1.[Cu] (stereo unspecified),T/C,"endpoint: median survival time, dose: 5.12 mg/kg/injection, schedule: Q01DX005 (ip), vehicle: Klucel (hydroxypropylcellulose) (HPC), higher = longer survival",98 % of control
same,T/C,"endpoint: median survival time, dose: 6.4 mg/kg/injection, schedule: Q01DX005 (ip), vehicle: Klucel (hydroxypropylcellulose) (HPC), higher = longer survival",95 % of control and 96 % of control and 102 % of control
same,T/C,"endpoint: median survival time, dose: 8.0 mg/kg/injection, schedule: Q01DX001 (ip), vehicle: Klucel (hydroxypropylcellulose) (HPC), higher = longer survival",93 % of control and 95 % of control and 106 % of control
same,T/C,"endpoint: median survival time, dose: 8.0 mg/kg/injection, schedule: Q01DX005 (ip), vehicle: Klucel (hydroxypropylcellulose) (HPC), higher = longer survival",96 % of control and 97 % of control and 98 % of control
same,T/C,"endpoint: median survival time, dose: 10.0 mg/kg/injection, schedule: Q01DX001 (ip), vehicle: Klucel (hydroxypropylcellulose) (HPC), higher = longer survival",95 % of control and 107 % of control and 109 % of control
same,T/C,"endpoint: median survival time, dose: 12.5 mg/kg/injection, schedule: Q01DX001 (ip), vehicle: Klucel (hydroxypropylcellulose) (HPC), higher = longer survival",93 % of control and 94 % of control and 119 % of control
Cn1ncc2c(N)ncnc21,T/C,"endpoint: median survival time, dose: 2.0 mg/kg/injection, schedule: Q01DX009 (ip), vehicle: Klucel (hydroxypropylcellulose) (HPC), higher = longer survival",104 % of control
same,T/C,[1],106 % of control
same,T/C,"endpoint: median survival time, dose: 8.0 mg/kg/injection, schedule: Q01DX009 (ip), vehicle: Klucel (hydroxypropylcellulose) (HPC), higher = longer survival",115 % of control
N=[N+]=CC(=O)CCC(NC(=O)C(CCC(=O)C=[N+]=N)NC(=O)CCC(N)C(=O)O)C(=O)O (stereo unspecified),T/C,"endpoint: median survival time, dose: 0.1 mg/kg/injection, schedule: Q01DX009 (ip), vehicle: saline, higher = longer survival",95 % of control
same,T/C,[2],95 % of control
same,T/C,[3],94 % of control
same,T/C,[4],91 % of control
same,T/C,[5],98 % of control
same,T/C,"endpoint: median survival time, dose: 12.5 micrograms/kg/injection, schedule: Q01DX009 (ip), vehicle: saline, higher = longer survival",113 % of control
same,T/C,"endpoint: median survival time, dose: 25.0 micrograms/kg/injection, schedule: Q01DX009 (ip), vehicle: saline, higher = longer survival",117 % of control
same,T/C,"endpoint: median survival time, dose: 50.0 micrograms/kg/injection, schedule: Q01DX009 (ip), vehicle: saline, higher = longer survival",97 % of control
same,T/C,"endpoint: median survival time, dose: 100.0 micrograms/kg/injection, schedule: Q01DX009 (ip), vehicle: saline, higher = longer survival",102 % of control
same,T/C,"endpoint: median tumor weight (est.), dose: 0.2 mg/kg/injection, schedule: Q01DX009 (ip), vehicle: saline, higher = larger tumour",86 % of control
C/C=C(\C)C(=O)O[C@@H]1c2cc3c(cc2-c2c(cc(OC)c(OC)c2OC)[C@@H]2C(=O)OC[C@@H]12)OCO3,T/C,"endpoint: median survival time, dose: 1.25 mg/kg/injection, schedule: Q01DX009 (ip), vehicle: Klucel (hydroxypropylcellulose) (HPC), higher = longer survival",109 % of control
same,T/C,"endpoint: median survival time, dose: 2.5 mg/kg/injection, schedule: Q01DX009 (ip), vehicle: Klucel (hydroxypropylcellulose) (HPC), higher = longer survival",101 % of control
same,T/C,"endpoint: median survival time, dose: 5.0 mg/kg/injection, schedule: Q01DX009 (ip), vehicle: Klucel (hydroxypropylcellulose) (HPC), higher = longer survival",109 % of control
same,T/C,"endpoint: median survival time, dose: 10.0 mg/kg/injection, schedule: Q01DX009 (ip), vehicle: Klucel (hydroxypropylcellulose) (HPC), higher = longer survival",101 % of control
Nc1ncn(C2OC(CO)C(O)C2O)c(=O)n1 (stereo unspecified),T/C,[2],100 % of control
same,T/C,[3],104 % of control
same,T/C,"endpoint: median survival time, dose: 0.5 mg/kg/injection, schedule: Q01DX009 (ip), vehicle: saline, higher = longer survival",87 % of control
same,T/C,"endpoint: median survival time, dose: 0.75 mg/kg/injection, schedule: Q01DX009 (ip), vehicle: Klucel (hydroxypropylcellulose) (HPC), higher = longer survival",111 % of control
same,T/C,[4],123 % of control
same,T/C,"endpoint: median survival time, dose: 1.0 mg/kg/injection, schedule: Q01DX009 (ip), vehicle: saline, higher = longer survival",105 % of control
same,T/C,[5],106 % of control
same,T/C,"endpoint: median survival time, dose: 3.2 mg/kg/injection, schedule: Q01DX009 (ip), vehicle: saline, higher = longer survival",114 % of control and 116 % of control
same,T/C,"endpoint: median tumor weight (est.), dose: 0.75 mg/kg/injection, schedule: Q01DX009 (ip), vehicle: saline, higher = larger tumour",87 % of control and 96 % of control
same,T/C,"endpoint: median tumor weight (est.), dose: 1.5 mg/kg/injection, schedule: Q01DX009 (ip), vehicle: saline, higher = larger tumour",41 % of control and 48 % of control
same,T/C,"endpoint: median tumor weight (est.), dose: 3.0 mg/kg/injection, schedule: Q01DX009 (ip), vehicle: saline, higher = larger tumour",52 % of control and 57 % of control
same,T/C,"endpoint: median tumor weight (est.), dose: 6.0 mg/kg/injection, schedule: Q01DX009 (ip), vehicle: saline, higher = larger tumour",21 % of control and 26 % of control
CCC1(O)CC2CN(CCc3c([nH]c4ccccc34)C(C(=O)OC)(c3cc4c(cc3OC)N(C)C3C(O)(C(N)=O)C(O)C5(CC)C=CCN6CCC43C65)C2)C1 (stereo unspecified) (tested in a mixture with another compound),T/C,"endpoint: median survival time, dose: 1.8 mg/kg/injection, schedule: Q04DX003 (ip), vehicle: water, higher = longer survival",87 % of control
